Experimental data from patent US9957264B2 (Merck Sharp & Dohme Corp., priority 2013, dated 2018).

Experiments:
[1] = target: JAK1 (recombinant purified GST-tagged catalytic domain) (Homo sapiens (Human), UniProt P23458); experiment: Jak Biochemical HTRF Assay (JAK1); conditions: [ATP] 31.8 μM
Summary of the method: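 Kinase reaction with biotinylated peptide substrate was started by ATP addition and run 120 min at room temperature, then quenched with EDTA stop buffer containing streptavidin-Dylight 650 and Eu-pY20 antibody. HTRF read 60 min later (665/615 nm ratio); percent inhibition vs log concentration fit to 4-parameter curve for IC50.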

[2] = target: JAK2 (recombinant purified GST-tagged catalytic domain) (Homo sapiens (Human), UniProt O60674); experiment: Jak Biochemical HTRF Assay (JAK2); conditions: [ATP] 8.5 μM
Sequence of JAK2 (recombinant purified GST-tagged catalytic domain) (O60674 849-1124): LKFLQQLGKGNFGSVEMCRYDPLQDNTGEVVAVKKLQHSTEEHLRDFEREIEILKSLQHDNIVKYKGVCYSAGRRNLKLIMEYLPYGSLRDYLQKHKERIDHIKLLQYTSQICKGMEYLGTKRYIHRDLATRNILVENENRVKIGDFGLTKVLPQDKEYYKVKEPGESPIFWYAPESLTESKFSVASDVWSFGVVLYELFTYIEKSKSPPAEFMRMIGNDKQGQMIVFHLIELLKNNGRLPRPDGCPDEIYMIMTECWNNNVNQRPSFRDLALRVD

Sequence of JAK1 (recombinant purified GST-tagged catalytic domain) (P23458 875-1153): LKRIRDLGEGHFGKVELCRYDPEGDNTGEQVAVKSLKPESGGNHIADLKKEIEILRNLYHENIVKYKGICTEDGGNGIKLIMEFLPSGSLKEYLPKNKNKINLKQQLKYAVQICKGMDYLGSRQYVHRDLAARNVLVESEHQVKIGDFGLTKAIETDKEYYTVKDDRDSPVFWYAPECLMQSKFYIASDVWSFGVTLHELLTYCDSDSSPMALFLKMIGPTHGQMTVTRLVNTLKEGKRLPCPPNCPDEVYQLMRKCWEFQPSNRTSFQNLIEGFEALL

Structure (SMILES)	IC50 [1]	IC50 [2]
N#CCC1(n2nc(Nc3ccc(C(F)(F)F)cc3)c3c(=O)[nH]ccc32)CCC2(CC1)OCCO2 [Example 5-83, 2-(8-(4-oxo-3-((4-(trifluoromethyl)phenyl)amino)-4,5-dihydro-1H-pyrazolo[4,3-c]pyridin-1-yl)-1,4-dioxaspiro[4.5]decan-8-yl)acetonitrile]	1.97 nM	21.6 nM
CC(C)S(=O)(=O)c1ccc(Nc2nn([C@@]3(CC#N)CCCC[C@H]3F)c3cc[nH]c(=O)c23)cc1 [Example 5-87, {(1R,2R)-2-fluoro-1-[3-({4-[(1-methylethyl)sulfonyl]phenyl}amino)-4-oxo-4,5-dihydro-1H-pyrazolo[4,3-c]pyridin-1-yl]cyclohexyl}acetonitrile]	0.04 nM	0.05 nM
CN(C(C)(C)C)S(=O)(=O)c1ccc(Nc2nn([C@]3(CC#N)CC[C@@H](C(=O)OC(C)(C)C)OC3)c3cc[nH]c(=O)c23)cc1 [Example 5-90, (2S,5S)-tert-butyl 5-(3-((4-(N-(tert-butyl)-N-methylsulfamoyl)phenyl)amino)-4-oxo-4,5-dihydro-1H-pyrazolo[4,3-c]pyridin-1-yl)-5-(cyanomethyl)tetrahydro-2H-pyran-2-carboxylate]	0.33 nM	0.41 nM
CC(C)N(C)S(=O)(=O)c1ccc(Nc2nn([C@]3(CC#N)CC[C@@H](C(=O)OC(C)(C)C)OC3)c3cc[nH]c(=O)c23)cc1 [Example 5-91, (2S,5S)-tert-butyl 5-(cyanomethyl)-5-(3-((4-(N-isopropyl-N-methylsulfamoyl)phenyl)amino)-4-oxo-4,5-dihydro-1H-pyrazolo[4,3-c]pyridin-1-yl)tetrahydro-2H-pyran-2-carboxylate]	0.14 nM	0.23 nM
CCN(C)S(=O)(=O)c1ccc(Nc2nn([C@]3(CC#N)CC[C@@H](C(=O)OC(C)(C)C)OC3)c3cc[nH]c(=O)c23)cc1 [Example 5-92, (2S,5S)-tert-butyl 5-(cyanomethyl)-5-(3-((4-(N-ethyl-N-methylsulfamoyl)phenyl)amino)-4-oxo-4,5-dihydro-1H-pyrazolo[4,3-c]pyridin-1-yl)tetrahydro-2H-pyran-2-carboxylate]	0.09 nM	0.13 nM
CNS(=O)(=O)c1ccc(Nc2nn([C@]3(CC#N)CC[C@@H](C(=O)OC(C)(C)C)OC3)c3cc[nH]c(=O)c23)cc1 [Example 5-94, (2S,5S)-tert-butyl 5-(cyanomethyl)-5-(3-((4-(N-methylsulfamoyl)phenyl)amino)-4-oxo-4,5-dihydro-1H-pyrazolo[4,3-c]pyridin-1-yl)tetrahydro-2H-pyran-2-carboxylate]	0.04 nM	0.18 nM
CC(C)(C)OC(=O)[C@@H]1CC[C@@](CC#N)(n2nc(Nc3ccc4c(c3)CN(CC(F)(F)F)C4=O)c3c(=O)[nH]ccc32)CO1 [Example 5-95, (2S,5S)-tert-butyl 5-(cyanomethyl)-5-(4-oxo-3-((1-oxo-2-(2,2,2-trifluoroethyl)isoindolin-5-yl)amino)-4,5-dihydro-1H-pyrazolo[4,3-c]pyridin-1-yl)tetrahydro-2H-pyran-2-carboxylate]	0.07 nM	0.2 nM
CC(C)(C)OC(=O)[C@@H]1CC[C@@](CC#N)(n2nc(Nc3ccc(Cn4nccn4)cc3)c3c(=O)[nH]ccc32)CO1 [Example 5-97, (2S,5S)-tert-butyl 5-(3-((4-((2H-1,2,3-triazol-2-yl)methyl)phenyl)amino)-4-oxo-4,5-dihydro-1H-pyrazolo[4,3-c]pyridin-1-yl)-5-(cyanomethyl) tetrahydro-2H-pyran-2-carboxylate]	0.09 nM	0.14 nM
CC(C)S(=O)(=O)c1ccc(Nc2nn([C@]3(CC#N)CC[C@@H](C(=O)OC(C)(C)C)OC3)c3cc[nH]c(=O)c23)cc1 [Example 5-98, (2S,5S)-tert-butyl 5-(cyanomethyl)-5-(3-((4-(isopropylsulfonyl)phenyl)amino)-4-oxo-4,5-dihydro-1H-pyrazolo[4,3-c]pyridin-1-yl)tetrahydro-2H-pyran-2-carboxylate]	0.07 nM	0.18 nM
CC(C)(C)OC(=O)[C@@H]1CC[C@@](CC#N)(n2nc(Nc3ccc(S(=O)(=O)C4CC4)cc3)c3c(=O)[nH]ccc32)CO1 [Example 5-99, (2S,5S)-tert-butyl 5-(cyanomethyl)-5-(3-((4-(cyclopropylsulfonyl)phenyl)amino)-4-oxo-4,5-dihydro-1H-pyrazolo [4,3-c]pyridin-1-yl) tetrahydro-2H-pyran-2-carboxylate]	0.05 nM	0.14 nM
CC(C)(C)OC(=O)[C@@H]1CC[C@@](CC#N)(n2nc(Nc3ccc4c(c3)CN(C(C)(C)C)C4=O)c3c(=O)[nH]ccc32)CO1 [Example 5-100, (2S,5S)-tert-butyl 5-(3-((2-(tert-butyl)-1-oxoisoindolin-5-yl)amino)-4-oxo-4,5-dihydro-1H-pyrazolo[4,3-c]pyridin-1-yl)-5-(cyanomethyl)tetrahydro-2H-pyran-2-carboxylate]	0.14 nM	0.26 nM
CC(C)(C)OC(=O)[C@@H]1CC[C@@](CC#N)(n2nc(Nc3ccc4c(c3)CN(C3CCCCC3)C4=O)c3c(=O)[nH]ccc32)CO1 [Example 5-101, (2S,5S)-tert-butyl 5-(cyanomethyl)-5-(3-((2-cyclohexyl-1-oxoisoindolin-5-yl)amino)-4-oxo-4,5-dihydro-1H-pyrazolo[4,3-c]pyridin-1-yl)tetrahydro-2H-pyran-2-carboxylate]	0.18 nM	0.4 nM
CC(C)(C)OC(=O)[C@@H]1CC[C@@](CC#N)(n2nc(Nc3ccc4c(c3)CN(C3CCCC3)C4=O)c3c(=O)[nH]ccc32)CO1 [Example 5-102, (2S,5S)-tert-butyl 5-(cyanomethyl)-5-(3-((2-cyclopentyl-1-oxoisoindolin-5-yl)amino)-4-oxo-4,5-dihydro-1H-pyrazolo[4,3-c]pyridin-1-yl)tetrahydro-2H-pyran-2-carboxylate]	0.1 nM	0.2 nM
CC(C)(C)OC(=O)[C@@H]1CC[C@@](CC#N)(n2nc(Nc3ccc(C(N)C(F)(F)F)cc3)c3c(=O)[nH]ccc32)CO1 (stereo partly drawn) [Example 5-103, (2S,5S)-tert-butyl 5-(3-((4-(1-amino-2,2,2-trifluoroethyl)phenyl)amino)-4-oxo-4,5-dihydro-1H-pyrazolo[4,3-c]pyridin-1-yl)-5-(cyanomethyl)tetrahydro-2H-pyran-2-carboxylate]	0.07 nM	0.23 nM
CC(C)(C)OC(=O)[C@@H]1CC[C@@](CC#N)(n2nc(Nc3ccc(C(N)C(F)(F)F)cc3)c3c(=O)[nH]ccc32)CO1 (stereo partly drawn) [Example 5-104, (2S,5S)-tert-butyl 5-(3-((4-(1-amino-2,2,2-trifluoroethyl)phenyl)amino)-4-oxo-4,5-dihydro-1H-pyrazolo[4,3-c]pyridin-1-yl)-5-(cyanomethyl)tetrahydro-2H-pyran-2-carboxylate]	0.07 nM	0.27 nM
N#CC[C@@]1(n2nc(Nc3ccc(S(=O)(=O)N4CCC4)cc3)c3c(=O)[nH]ccc32)CCCOC1 [Example 5-105, [(3S)-3-(3-{[4-(azetidin-1-ylsulfonyl)phenyl]amino}-4-oxo-4,5-dihydro-1H-pyrazolo[4,3-c]pyridin-1-yl)tetrahydro-2H-pyran-3-yl]acetonitrile]	0.23 nM	0.55 nM
CC1CN(S(=O)(=O)c2ccc(Nc3nn([C@]4(CC#N)CCCOC4)c4cc[nH]c(=O)c34)cc2)C1 [Example 5-106, {(3S)-3-[3-({4-[(3-methylazetidin-1-yl)sulfonyl]phenyl}amino)-4-oxo-4,5-dihydro-1H-pyrazolo[4,3-c]pyridin-1-yl]tetrahydro-2H-pyran-3-yl}acetonitrile]	0.39 nM	0.99 nM
CC1(C)CCCN1S(=O)(=O)c1ccc(Nc2nn([C@]3(CC#N)CCCOC3)c3cc[nH]c(=O)c23)cc1 [Example 5-107, {(3S)-3-[3-({4-[(2,2-dimethylpyrrolidin-1-yl)sulfonyl]phenyl}amino)-4-oxo-4,5-dihydro-1H-pyrazolo[4,3-c]pyridin-1-yl]tetrahydro-2H-pyran-3-yl} acetonitrile]	0.2 nM	0.33 nM
Cc1cc(Nc2nn([C@]3(CC#N)CCCOC3)c3cc[nH]c(=O)c23)ccc1C(=O)N1CC[C@@H](F)C1 [Example 5-115, 2-((S)-3-(3-((4-((R)-3-fluoropyrrolidine-1-carbonyl)-3-methylphenyl)amino)-4-oxo-4,5-dihydro-1H-pyrazolo[4,3-c]pyridin-1-yl)tetrahydro-2H-pyran-3-yl)acetonitrile]	0.33 nM	0.99 nM
CO[C@H]1CCN(C(=O)c2ccc(Nc3nn([C@]4(CC#N)CCCOC4)c4cc[nH]c(=O)c34)cc2C)C1 [Example 5-116, 2-((S)-3-(3-((4-((S)-3-methoxypyrrolidine-1-carbonyl)-3-methylphenyl)amino)-4-oxo-4,5-dihydro-1H-pyrazolo[4,3-c]pyridin-1-yl)tetrahydro-2H-pyran-3-yl)acetonitrile]	0.61 nM	1.22 nM
CO[C@@H]1CCN(C(=O)c2ccc(Nc3nn([C@]4(CC#N)CCCOC4)c4cc[nH]c(=O)c34)cc2C)C1 [Example 5-117, 2-((S)-3-(3-((4-((R)-3-methoxypyrrolidine-1-carbonyl)-3-methylphenyl)amino)-4-oxo-4,5-dihydro-1H-pyrazolo[4,3-c]pyridin-1-yl)tetrahydro-2H-pyran-3-yl)acetonitrile]	0.45 nM	1.36 nM
Cc1cc(Nc2nn([C@]3(CC#N)CCCOC3)c3cc[nH]c(=O)c23)ccc1C(=O)N1CCOCC1 [Example 5-118, (S)-2-(3-(3-((3-methyl-4-(morpholine-4-carbonyl)phenyl)amino)-4-oxo-4,5-dihydro-1H-pyrazolo[4,3-c]pyridin-1-yl)tetrahydro-2H-pyran-3-yl)acetonitrile]	0.34 nM	0.76 nM
